Test results from ChEMBL document CHEMBL2429773, “Synthesis and antiseizure evaluation of isoindoline-1,3-dione derivatives in mice” (Med Chem Res, 2013).

How the values were obtained:
[1] = system: Mus musculus; assay: Anticonvulsant activity against subcutaneous pentylenetetrazole-induced seizures in albino mouse assessed as duration of seizure time at 100 mg/kg, ip after 0.5 hr; assay type: functional; conditions: route intraperitoneal
[2] = Neurotoxicity in ip dosed albino mouse measured after 30 mins by rotarod method; assay type: toxicity, organism-based; conditions: in vivo
[3] = system: Mus musculus; assay: Anticonvulsant activity against maximal electroshock-induced seizures in albino mouse assessed as seizure at 100 mg/kg, ip after 0.5 hr; assay type: functional; conditions: route intraperitoneal
[4] = system: Mus musculus; assay: Anticonvulsant activity against subcutaneous pentylenetetrazole-induced seizures in albino mouse assessed as onset of seizure time at 300 mg/kg, ip after 0.5 hr; assay type: functional; conditions: route intraperitoneal
[5] = system: Mus musculus; assay: Anticonvulsant activity in albino mouse assessed as protection against subcutaneous pentylenetetrazole-induced death measured as mortality at 100 mg/kg, ip after 0.5 hr; assay type: functional; conditions: sc, route intraperitoneal
[6] = system: Mus musculus; assay: Anticonvulsant activity against subcutaneous pentylenetetrazole-induced seizures in albino mouse assessed as seizure at 100 mg/kg, ip after 0.5 hr; assay type: functional
[7] = system: Mus musculus; assay: Anticonvulsant activity in albino mouse assessed as protection against subcutaneous pentylenetetrazole-induced death measured as mortality at 300 mg/kg, ip after 0.5 hr; assay type: functional; conditions: sc, route intraperitoneal
[8] = system: Mus musculus; assay: Anticonvulsant activity in ip dosed albino mouse assessed as protection against maximal electroshock-induced seizures after 0.5 hr; assay type: functional
[9] = system: Mus musculus; assay: Protective index, ratio of TD50 for neurotoxicity in ip dosed albino mouse to ED50 for anticonvulsant activity in ip dosed albino mouse; assay type: functional
[10] = system: Mus musculus; assay: Anticonvulsant activity against maximal electroshock-induced seizures in albino mouse assessed as seizure at 30 mg/kg, ip after 0.5 hr; assay type: functional; conditions: route intraperitoneal
[11] = system: Mus musculus; assay: Anticonvulsant activity in albino mouse assessed as protection against subcutaneous pentylenetetrazole-induced death measured as mortality at 30 mg/kg, ip after 0.5 hr; assay type: functional; conditions: sc
[12] = system: Mus musculus; assay: Anticonvulsant activity against maximal electroshock-induced seizure in albino mouse assessed as seizures at 300 mg/kg, ip after 0.5 hr; assay type: functional; conditions: route intraperitoneal
[13] = system: Mus musculus; assay: Anticonvulsant activity against subcutaneous pentylenetetrazole-induced seizures in albino mouse assessed as duration of seizure time at 30 mg/kg, ip after 0.5 hr; assay type: functional; conditions: route intraperitoneal
[14] = system: Mus musculus; assay: Anticonvulsant activity against subcutaneous pentylenetetrazole-induced seizures in albino mouse assessed as onset of seizure time at 30 mg/kg, ip after 0.5 hr; assay type: functional; conditions: route intraperitoneal
[15] = system: Mus musculus; assay: Anticonvulsant activity against subcutaneous pentylenetetrazole-induced seizures in albino mouse assessed as onset of seizure time at 100 mg/kg, ip after 0.5 hr; assay type: functional; conditions: route intraperitoneal
[16] = system: Mus musculus; assay: Anticonvulsant activity against subcutaneous pentylenetetrazole-induced seizures in albino mouse assessed as duration of seizure time at 300 mg/kg, ip after 0.5 hr; assay type: functional; conditions: route intraperitoneal

Row | Compound | Time [1] [min] | TD50 at 0.5 h [2] [mg/kg] | Activity [3] [%] | Time [4] [min] | mortality at 100 mg/kg [5] [%] | Activity ([6]; route intraperitoneal) [%] | mortality at 300 mg/kg [7] [%] | ED50 [8] [mg/kg] | Ratio TD50/ED50 [9] | Activity [10] [%] | mortality at 30 mg/kg ([11]; route intraperitoneal) [%] | Activity [12] [%] | Time [13] [min] | Time [14] [min] | Time [15] [min] | Time [16] [min] | Activity ([6]; ROUTE) [%] | mortality at 30 mg/kg [11] [%]
1 | COc1ccccc1N1C(=O)c2ccccc2C1=O | 9.75 | 222 | 100 | 7.25 | 100 | 100 | 75 | 195 | 1.14 | 100 | 100 | 25 | 9.75 | 2.75 | 5.75 | 13.5 |  | 
2 | O=C1c2ccccc2C(=O)N1c1cccc(Cl)c1 | 7 | 300 | 100 | 4.75 | 75 | 100 | 25 | 190 | 1.57 | 100 | 100 | 25 | 11.25 | 3.5 | 3.75 | 9 |  | 
3 | COc1ccc(N2C(=O)c3ccccc3C2=O)cc1 | 22.25 | 89.3 | 25 | 13.5 | 100 | 100 | 0 | 15.1 | 5.91 | 25 | 100 | 0 | 11.75 | 3 | 5.25 | 23.75 |  | 
4 | O=C1c2ccccc2C(=O)N1c1ccc([N+](=O)[O-])cc1 | 11.75 | 176 | 25 | 6.25 | 75 | 100 | 75 | 62.3 | 2.81 | 100 | 75 | 25 | 5.75 | 3.5 | 4 | 15.5 |  | 
5 | O=C1c2ccccc2C(=O)N1c1ccccc1 [N-PHENYL-PHTHALIMIDE] | 11 | > 300 | 25 | 6 | 100 | 100 | 25 | 66.2 | >4.53 | 100 | 100 | 0 | 3.75 | 3.25 | 4.5 | 15.75 |  | 
6 | O=C1c2ccccc2C(=O)N1c1ccccc1[N+](=O)[O-] | 22.5 | > 300 | 25 | 8.75 | 0 | 100 | 75 | 53.5 | >5.6 | 75 | 100 | 0 | 7 | 2 | 7.5 | 18 |  | 
7 | O=C1c2ccccc2C(=O)N1c1cccc(F)c1 | 11 | 31.7 | 0 | 4.75 | 100 | 100 | 75 | 39.7 | 0.79 | 100 | 100 | 25 | 10.5 | 5 | 4 | 14 |  | 
8 | O=C1c2ccccc2C(=O)N1c1ccc(Cl)cc1 | 12.75 | > 300 | 25 | 8.25 | 75 | 100 | 75 | 55 | >5.54 | 75 | 100 | 25 | 10.5 | 3 | 3.25 | 19.25 |  | 
9 | CN1C(=O)CN=C(c2ccccc2)c2cc(Cl)ccc21 [DIAZEPAM] |  |  |  |  |  |  |  | 1.8 |  |  |  |  |  |  |  |  | 0 | 0
10 | O=C1c2ccccc2C(=O)N1c1ccc(F)cc1 | 23.75 | 182 | 100 | 15.25 | 25 | 100 | 0 | > 300 | <0.6 | 100 | 25 | 75 | 13.25 | 3 | 8.5 | 23.5 |  | 
11 | O=C1c2ccccc2C(=O)N1c1ccccc1Cl | 14.25 |  | 75 | 9.5 | 75 | 100 | 100 | 168 |  | 100 | 100 | 25 | 8.25 | 1.5 | 6.5 | 24.5 |  | 
12 | COc1cccc(N2C(=O)c3ccccc3C2=O)c1 | 18.75 |  | 100 | 10.25 | 75 | 100 | 25 | > 300 |  | 100 | 100 | 75 | 7.25 | 3 | 7.25 | 22.25 |  | 
